We go through 6 compounds from PMC10124904, “Activation of Gcn2 by small molecules designed to be inhibitors” (The Journal of Biological Chemistry, 2023).

pIC50: −log10 of the molar value. Values joined by “and” are separate entries in the source; they are usually repeats but may differ in a detail not shown here. Identical values can stand only once.

Type in all cases: cell-based
Assay [1] concerns the target T1, Gcn2 (Homo sapiens, UniProt Q9P2K8).
T1 construct: HEK293 cells expressing endogenous WT Gcn2 (End WT); endogenous in cells; host or cells: HEK293 (HEK293A with integrated P(AAREx6)-Luc; HEK293/HEK293T)
Put plainly: P(AAREx6)-Luc Atf4 transcriptional activity reporter in HEK293 cells. As to conditions: for dose response of Atf4 activity (P(AAREx6)-Luc): 2× serial dilution from 78 nM to 20 μM. On the procedure: HEK-derived cells were used in this study. HEK293T cells were obtained from American Type Culture Collection. HEK293A cells were purchased from Invitrogen. Cells were cultured in Dulbecco's modified Eagle's medium (DMEM) (Corning 10-013-CV) supplemented with 10% (vol/vol) fetal bovine serum (Corning 35-010-CV), 100 U/ml penicillin, and 0.1 mg/ml streptomycin (Hyclone SV30010), hereafter referred to as DMEM complete, at 37 °C in 5% CO2 humidified incubator. […] To create cells stably expressing a luciferase reporter for Atf4 transcription activity, HEK293A cells were transduced with a lentivirus encoding an Atf4 transcription reporter (P(AAREx6)-Luc), which consists of six copies of C/ebp-Atf4 consensus binding sequence (5′-[…]-3′) upstream of a minimal promoter followed by the firefly luciferase coding sequence. Selection of the stable expression of the luciferase reporter was selected in DMEM complete supplemented with 1 μg/ml puromycin.
For transcriptional reporter assays, HEK293-P(AAREx6)-Luc cells were seeded into 96-well plate at 10,000 cells/well and cultured in DMEM complete at 37 °C with 5% CO2 overnight. After 24 h, cells were treated with HF or Gcn2iB, as indicated. After 6 h of culture, the media was replaced with 1:1 dilution of DMEM complete to Bio-Glo luciferase assay reagent (Promega Cat # G7940). The assay plate was incubated at room temperature for 15 min at 200 rpm on rotary plate shaker and then luminescence was read on BioTek Synergy H1 microplate reader using 1 s integration time and gain setting between 135 and 200. Luciferase activity was measured as luminescence for each of three experiments per treatment.

In the next assay the target is T2, Flag-Gcn2 K619A (Homo sapiens, UniProt Q9P2K8, K619A).
T2 construct: Transomic Technologies) was inserted into pCDNA5; expressed in transfected cells; host or cells: HEK293 Gcn2 KO cells, transient transfection
T2 sequence (Q9P2K8 whole entry K619A): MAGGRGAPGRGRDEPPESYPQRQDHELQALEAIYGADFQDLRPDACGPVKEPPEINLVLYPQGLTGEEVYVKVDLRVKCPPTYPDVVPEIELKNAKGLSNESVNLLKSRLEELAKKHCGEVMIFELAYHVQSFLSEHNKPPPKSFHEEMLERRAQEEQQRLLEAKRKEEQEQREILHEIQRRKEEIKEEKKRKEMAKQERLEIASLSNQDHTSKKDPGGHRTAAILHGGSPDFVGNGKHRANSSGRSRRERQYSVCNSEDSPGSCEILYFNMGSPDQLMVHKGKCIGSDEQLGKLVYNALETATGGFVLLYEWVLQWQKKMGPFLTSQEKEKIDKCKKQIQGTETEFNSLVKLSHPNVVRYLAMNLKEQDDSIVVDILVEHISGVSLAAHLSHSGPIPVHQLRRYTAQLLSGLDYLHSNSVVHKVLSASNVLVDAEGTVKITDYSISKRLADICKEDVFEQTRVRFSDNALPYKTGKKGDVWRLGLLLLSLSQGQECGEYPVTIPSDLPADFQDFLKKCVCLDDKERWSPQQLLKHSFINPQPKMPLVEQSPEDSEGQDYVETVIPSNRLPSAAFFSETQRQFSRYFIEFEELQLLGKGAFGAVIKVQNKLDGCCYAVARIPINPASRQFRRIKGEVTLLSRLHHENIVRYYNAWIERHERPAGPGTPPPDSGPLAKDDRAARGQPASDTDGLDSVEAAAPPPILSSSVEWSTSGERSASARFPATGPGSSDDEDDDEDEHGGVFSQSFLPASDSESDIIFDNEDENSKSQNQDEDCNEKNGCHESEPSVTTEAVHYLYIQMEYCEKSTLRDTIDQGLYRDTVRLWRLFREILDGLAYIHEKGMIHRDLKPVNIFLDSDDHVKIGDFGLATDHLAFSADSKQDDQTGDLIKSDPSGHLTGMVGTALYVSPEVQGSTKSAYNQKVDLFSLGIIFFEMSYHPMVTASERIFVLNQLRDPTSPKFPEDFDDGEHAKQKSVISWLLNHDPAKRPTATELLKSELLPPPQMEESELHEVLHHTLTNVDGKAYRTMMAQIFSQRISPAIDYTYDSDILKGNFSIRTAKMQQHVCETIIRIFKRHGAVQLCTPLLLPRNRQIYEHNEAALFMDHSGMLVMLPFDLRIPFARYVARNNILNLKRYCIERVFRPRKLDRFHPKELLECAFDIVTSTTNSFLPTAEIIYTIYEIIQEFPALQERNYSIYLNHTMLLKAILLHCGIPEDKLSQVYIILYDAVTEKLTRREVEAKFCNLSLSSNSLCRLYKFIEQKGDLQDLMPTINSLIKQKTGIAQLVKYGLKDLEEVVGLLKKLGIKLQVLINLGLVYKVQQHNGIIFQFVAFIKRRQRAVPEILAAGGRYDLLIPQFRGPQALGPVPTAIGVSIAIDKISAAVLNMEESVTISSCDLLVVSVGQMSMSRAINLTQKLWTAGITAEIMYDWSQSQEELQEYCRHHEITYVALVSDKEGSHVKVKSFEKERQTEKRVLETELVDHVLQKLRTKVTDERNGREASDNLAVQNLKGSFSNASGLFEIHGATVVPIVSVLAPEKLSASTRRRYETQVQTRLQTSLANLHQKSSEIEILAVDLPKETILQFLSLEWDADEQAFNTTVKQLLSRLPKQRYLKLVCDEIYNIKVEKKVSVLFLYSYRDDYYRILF
Put plainly: Atf4-Luc translational reporter, Gcn2 KO HEK293 cells expressing Flag-Gcn2 K619A. As to conditions: 50 nM Gcn2iB, 1 μM neratinib, 2 μM dovitinib or 2 μM dabrafenib, 6 h. The source says: (§1) The human Gcn2 coding sequence from pENTR223-1 Gcn2 (NM_001013703; Transomic Technologies) was inserted into pCDNA5 to create an amino-terminal 3× flag tag fusion with Gcn2 by using an In-Fusion HD cloning kit and a three-way cloning reaction method. The resulting plasmid pCDNA5-Gcn2, referred to in the text as Flag-Gcn2, was used as a template to construct the mutant versions detailed in Table 1 by site-directed mutagenesis using an In-Fusion HD cloning kit (Takara Bio). The Gcn2 expressing plasmid was introduced transiently into the HEK293-Gcn2 KO cells as described in the following complementation section. Plasmid pMSCV-Gadd34-puro contains the human Gadd34 (PPP1R15A, NM_014330.5) gene subcloned into the NcoI/EcoRI sites of the retroviral vector pMSCV-puro ([24]).
(§2) For translational reporter assays, HEK293-Gcn2 KO cells were cotransfected with WT or mutant Gcn2 and the reporter Atf4-Luc and nano-luciferase plasmids and then treated with HF or Gcn2iB. Gcn2 activity was measured in a dual luciferase assay. To perform this experiment, HEK293-Gcn2 KO cells were seeded into 12-well plates at 50,000 cells/well. […] For experiments with Gadd34 expression, 100 ng of vector control or Gadd34 expression plasmid was included in the transfection. […] The Atf4-Luc and nano-luciferase signals were measured with Nano-Glo Dual-Luciferase Reporter Assay kit (Promega Cat #N1620) using a Turner Biosystems 20/20 luminometer. Firefly luciferase activity was normalized to nano-luciferase control for each of three biological replicates.

Assay [2] addresses T1, Gcn2. Put plainly: Immunoblot of ISR markers (p-Gcn2, p-eIF2α, Atf4) in HEK293 cells with endogenous Gcn2 (End. WT).
Assay [3] deals with T3, Flag-Gcn2 M2 (F1143L/R1144L) (Homo sapiens, UniProt Q9P2K8, F1143L/R1144L).
T3 construct: Transomic Technologies) was inserted into pCDNA5; expressed in transfected cells; host or cells: HEK293 Gcn2 KO cells, transient transfection
T3 sequence (Q9P2K8 whole entry F1143L/R1144L): as the sequence (Q9P2K8 whole entry K619A) above, with A619K, F1143L, R1144L counted along it
Put plainly: Atf4-Luc translational reporter, Gcn2 KO HEK293 cells expressing Flag-Gcn2 M2. As to conditions: 50 nM Gcn2iB, 1 μM neratinib, 2 μM dovitinib or 2 μM dabrafenib, 6 h.
Source text: as §1
(§3) For translational reporter assays, HEK293-Gcn2 KO cells were cotransfected with WT or mutant Gcn2 and the reporter Atf4-Luc and nano-luciferase plasmids and then treated with HF or Gcn2iB. Gcn2 activity was measured in a dual luciferase assay. To perform this experiment, HEK293-Gcn2 KO cells were seeded into 12-well plates at 50,000 cells/well. […] The Atf4-Luc and nano-luciferase signals were measured with Nano-Glo Dual-Luciferase Reporter Assay kit (Promega Cat #N1620) using a Turner Biosystems 20/20 luminometer. […]

In a further assay the target is T4, Flag-Gcn2 T899A (Homo sapiens, UniProt Q9P2K8, T899A).
T4 construct: Transomic Technologies) was inserted into pCDNA5; expressed in transfected cells; host or cells: HEK293 Gcn2 KO cells, transient transfection
T4 sequence (Q9P2K8 whole entry T899A): as the sequence (Q9P2K8 whole entry K619A) above, with A619K, T899A counted along it
Description: Atf4-Luc translational reporter, Gcn2 KO HEK293 cells expressing Flag-Gcn2 T899A. The following applies: 6 h; for increase in Atf4-Luc activity: T899A Gcn2, 50 nM Gcn2iB, 1 μM neratinib, 2 μM dovitinib or 2 μM dabrafenib.
Source text: as §1, §2

For assay [4], the target named is T1, Gcn2. Description: Atf4-Luc translational reporter in HEK293 cells (endogenous Gcn2). The following applies: 6 h.
In another assay the target is T5, Flag-Gcn2 WT (Homo sapiens, UniProt Q9P2K8).
T5 construct: Transomic Technologies) was inserted into pCDNA5; expressed in transfected cells; host or cells: HEK293 Gcn2 KO cells, transient transfection of pCDNA5-Gcn2
T5 sequence (Q9P2K8 whole entry): as the sequence (Q9P2K8 whole entry K619A) above, with A619K counted along it
Put plainly: Atf4-Luc translational reporter, Gcn2 KO HEK293 cells expressing Flag-Gcn2 WT. The following applies: 50 nM Gcn2iB vs vehicle, 6 h.
Source text: as §1, §3

Another assay addresses T6, Flag-Gcn2 M802F (Homo sapiens, UniProt Q9P2K8, M802F).
T6 construct: Transomic Technologies) was inserted into pCDNA5; expressed in transfected cells; host or cells: HEK293 Gcn2 KO cells, transient transfection
Description: Atf4-Luc translational reporter, Gcn2 KO HEK293 cells expressing Flag-Gcn2 M802F. As to conditions: Gcn2iB concentrations up to 4 μM, 6 h.
Source text: as §1, §3

In a further assay the target is T7, Flag-Gcn2 M802V (Homo sapiens, UniProt Q9P2K8, M802V).
T7 construct: Transomic Technologies) was inserted into pCDNA5; expressed in transfected cells; host or cells: HEK293 Gcn2 KO cells, transient transfection
T7 sequence (Q9P2K8 whole entry M802V): as the sequence (Q9P2K8 whole entry K619A) above, with A619K, M802V counted along it
Description: Atf4-Luc translational reporter, Gcn2 KO HEK293 cells expressing Flag-Gcn2 M802V. The following applies: 4 nM Gcn2iB, 6 h.
Source text: as §1, §3

Setting [5] is: 25 nM HF, time course up to 6 h.
[6] abbreviates: Gcn2iB pretreatment 30 min, then 12.5 nM HF 6 h.
[7] abbreviates: 2 μM tunicamycin, 6 h, immunoblot.

T1 sequence (Q9P2K8 whole entry): as the sequence (Q9P2K8 whole entry K619A) above, with A619K counted along it
T6 sequence (Q9P2K8 whole entry M802F): as the sequence (Q9P2K8 whole entry K619A) above, with A619K, M802F counted along it

`CN1CCN(c2ccc3nc(-c4c(N)c5c(F)cccc5[nH]c4=O)[nH]c3c2)CC1` [dovitinib]: at Gcn2 [1] (6 h), the “dose response of Atf4 activity (P(AAREx6)-Luc)” value is given as “biphasic induction”. For the same compound, the “increase in Atf4-Luc activity” value at Flag-Gcn2 K619A is reported as “no increase”.
With `O=C(COc1ccc(Cl)c(F)c1)NC12CC(NC(=O)c3cnc(C(F)F)cn3)(C1)C2` [2B-Act], at Gcn2 [1] (pretreated 30 min with 1 μM A-92 or 2 μM 2B-Act, then Gcn2iB 6 h), the “effect on biphasic induction of luciferase activity by Gcn2iB” value is recorded as “ablated”. For the same compound, the “effect of cotreatment on Gcn2iB-induced p-eIF2α and Atf4 levels” value at Gcn2 [2] (1 μM A-92 or 2 μM 2B-Act pretreatment 30 min, then 50 nM Gcn2iB 6 h) is “lowered p-eIF2α and Atf4 levels”.
`CCOc1cc2ncc(C#N)c(Nc3ccc(OCc4ccccn4)c(Cl)c3)c2cc1NC(=O)/C=C/CN(C)C` [neratinib]: the “dose response of Atf4 activity (P(AAREx6)-Luc)” value on Gcn2 [1] (6 h) is “biphasic induction”. Also, the “increase in Atf4-Luc activity” value on Flag-Gcn2 K619A is “no increase”; in assay [3], “able to increase Atf4-Luc activity”; on Flag-Gcn2 T899A, “able to increase Atf4-Luc activity”.
For `O=C(CC1NCCCC1O)Cn1cnc2cc(Br)c(Cl)cc2c1=O` (stereo not drawn) [HF, Halofuginone], the “increase in luciferase signal (P(AAREx6)-Luc)” value on Gcn2 [1] (12.5 nM HF, 6 h) is recorded as “approximately 30 fold”. Moreover, the “P(AAREx6)-Luc activity” value on Gcn2 [1] (25 nM HF alone, 6 h) was “robust induction”. At Gcn2 [2] (setting [5]), the “time at which expression of Atf4 was enhanced” value worked out at 1 h; the “time to increased p-Gcn2 and p-eIF2α” value is listed as not above 30 min. Further, the Atf4 levels result at Gcn2 [2] (100 nM HF, 6 h, immunoblot) is given as “significant reduction”. For the same compound, the Atf4-Luc expression entry on Gcn2 [4] (25 nM HF alone) is reported as “robust induction”.
The term pIC50 denotes the negative decadic logarithm of the IC50, by convention in mol/L. For the compound `COc1ncc(Cl)cc1S(=O)(=O)Nc1ccc(F)c(C#Cc2cnc(N)nc2)c1F` [Gcn2iB], the “effect on HF-induced P(AAREx6)-Luc activity” value at Gcn2 [1] (25 nM HF + 2 μM Gcn2iB, 6 h) was “sharply reduced”. Besides, the “Gcn2iB concentration at peak induction of luciferase activity” value on Gcn2 [1] (Gcn2iB only, absence of HF, 6 h) is “about 32 nM”. In addition, the “peak induction of luciferase activity (P(AAREx6)-Luc)” value on Gcn2 [1] (Gcn2iB only, absence of HF, 6 h, biphasic) is recorded as 7.8 fold. At Gcn2 [1] (Gcn2iB pretreatment 30 min, then 12.5 nM HF 6 h, read-out: IC50 for diminishing HF-induced P(AAREx6)-Luc luciferase signal), the pIC50 is 7.14. For the same compound, the “time of maximal Atf4 expression” value on Gcn2 [2] (50 nM Gcn2iB time course up to 6 h, WT cells) is on record as 6 h. Further, the “induction of p-eIF2α” value at Gcn2 [2] (50 nM Gcn2iB time course, WT cells, detected as early as 30 min) was 2.7 fold. Moreover, the “Gcn2iB concentration giving reductions in HF-induced Atf4” value on Gcn2 [2] (setting [6]) was not below 250 nM. The “Gcn2iB concentration giving reductions in HF-induced p-Gcn2” value on Gcn2 [2] (setting [6]) is on record as not below 62.5 nM. Further, on Gcn2 [2] (absence of HF, 6 h), the “Gcn2iB concentration above which p-Gcn2 was lowered below vehicle and Atf4 not appreciably induced” value is recorded as “Above 250 nM”. Further, the “Levels Atf4-Luc, fold change upon treatment” value at Flag-Gcn2 WT was 2.7 fold and 3 fold; on Flag-Gcn2 T899A (50 nM Gcn2iB vs vehicle, Flag-Gcn2 T899A), 2.8 fold. The results for the “increase in Atf4-Luc activity” value (on Flag-Gcn2 K619A; in assay [3]; at Flag-Gcn2 T899A) were “no increase”, “able to increase Atf4-Luc activity” and “able to increase Atf4-Luc activity”, respectively. In addition, the “Atf4-Luc activity in Gcn2iB dose response” value on Flag-Gcn2 M802F is “maintained the same level of Atf4-Luc activity”. Besides, on Flag-Gcn2 M802V, the “increase in Atf4-Luc activity relative to untreated M802V cells” value is 2 fold. Also, the “effect on HF-induced Atf4-Luc expression” value at Gcn2 [4] (25 nM HF + 2 μM Gcn2iB) was “sharply diminished”.
Turning to tunicamycin, at Gcn2 [2] (setting [7]), the “p-eIF2α and Atf4” value is “induced p-eIF2α and Atf4”; the “phosphorylation of Gcn2 (T899)” value is given as “minimal phosphorylation of Gcn2”.
